*1 amine or outer side, *2 acyl side, *3 side chain or, on linkers, in order; H or OH if unused. Where a SMILES comes first, the peptide text is derived from it. Where no end group is shown, it is not given here. Side-chain parts run from the residue outwards. The star is where a group is joined. γGlu = O=C(O)[C@H](CCC(=O)[*:2])N[*:1]; Palmitoyl = CCCCCCCCCCCCCCCC(=O)*; Hexanoyl = CCCCCC(=O)*; Propionyl = CCC(=O)*

In experiment [1] the target is T1, human VPAC2 (Homo sapiens, UniProt P41587).
T1 construct: expressed in transfected cells
T1 sequence (P41587 24-438): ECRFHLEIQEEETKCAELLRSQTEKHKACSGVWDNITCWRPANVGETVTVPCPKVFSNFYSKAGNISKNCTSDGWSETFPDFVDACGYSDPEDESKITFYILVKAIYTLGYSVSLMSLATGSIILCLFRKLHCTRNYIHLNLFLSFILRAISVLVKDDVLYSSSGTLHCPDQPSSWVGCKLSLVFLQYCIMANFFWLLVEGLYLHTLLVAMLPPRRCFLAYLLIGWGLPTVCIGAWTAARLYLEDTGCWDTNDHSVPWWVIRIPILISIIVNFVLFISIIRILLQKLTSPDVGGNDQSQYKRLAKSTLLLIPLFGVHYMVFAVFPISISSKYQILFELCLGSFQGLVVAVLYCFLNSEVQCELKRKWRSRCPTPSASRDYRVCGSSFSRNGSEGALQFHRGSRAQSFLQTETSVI
The experiment in a line: DiscoveRx cAMP in vitro potency, human VPAC2. It is filed as cell-based. The protocol:
(§1) Also, the cells are washed twice. The cells are incubated in assay buffer plus IBMX for 15 minutes at room temperature. […] The stimuli are present for 30 minutes. Then, the assay buffer is gently removed. […] At day 3, the assay described above for the VPAC2 receptor cell line is performed.

Experiment [2] addresses T1, human VPAC2. The experiment in a line: Alpha screen cAMP in vitro potency, human VPAC2. It is filed as cell-based. The protocol: Alpha screen: Cells are washed in the culture flask once with PBS. Then, the cells are rinsed with enzyme free dissociation buffer. The dissociated cells are removed. The cells are then spun down and washed in stimulation buffer. For each data point, 50,000 cells suspended in stimulation buffer are used. To this buffer, Alpha screen acceptor beads are added along with the stimuli. This mixture is incubated for 60 minutes. Lysis buffer and Alpha screen donor beads are added and are incubated for 60 to 120 minutes. The Alpha screen signal (indicative of intracellular cAMP levels) is read in a suitable instrument (e.g. AlphaQuest from Perlin-Elmer). Steps including Alpha screen donor and acceptor beads are performed in reduced light.

Experiment [3] deals with T2, human VPAC1 (Homo sapiens, UniProt P32241).
T2 sequence (P32241 31-457): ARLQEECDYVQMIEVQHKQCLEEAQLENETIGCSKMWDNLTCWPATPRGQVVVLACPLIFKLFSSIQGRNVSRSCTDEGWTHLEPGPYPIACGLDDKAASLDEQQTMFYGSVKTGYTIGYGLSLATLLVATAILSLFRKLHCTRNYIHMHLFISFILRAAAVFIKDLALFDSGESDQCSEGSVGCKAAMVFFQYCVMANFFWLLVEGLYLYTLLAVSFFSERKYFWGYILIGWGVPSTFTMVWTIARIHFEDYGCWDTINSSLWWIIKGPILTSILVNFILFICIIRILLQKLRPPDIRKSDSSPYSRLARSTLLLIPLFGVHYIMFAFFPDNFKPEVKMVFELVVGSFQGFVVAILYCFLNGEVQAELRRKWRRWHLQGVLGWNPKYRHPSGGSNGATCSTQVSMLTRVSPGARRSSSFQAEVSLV
The experiment in a line: Filter binding assay, human VPAC1 membranes, 125I-labeled VIP tracer. Set-up: expressed in transfected cells. The protocol: (§2) For this assay, the solutions and equipment include:
(§3) Presoak solution: 0.5% Polyethyleneamine in Aqua dest.
(§4) Buffer for flushing filter plates: 25 mM […] pH 7.4
(§5) Blocking buffer: 25 mM HEPES pH 7.4; 0.2% protease free BSA
(§6) Assay buffer: 25 mM HEPES pH 7.4; 0.5% protease free BSA
(§7) Dilution and assay plate: PS-Microplate, U form
(§8) Filtration Plate Multiscreen FB Opaque Plate; […] Type B Glasfiber filter
(§9) In order to prepare the filter plates, aspirate the presoak solution by vacuum filtration. Flush the plates twice with 200 μL flush buffer. Add 200 μL blocking buffer to the filter plate. The filter plate is then incubated […] for 1 hour at room temperature.
(§10) Fill the assay plate with 25 μL assay buffer, 25 μL membranes (2.5 μg) suspended in assay buffer, 25 μL compound (agonist) in assay buffer, and 25 μL tracer (about 40000 cpm) in assay buffer. Incubate the filled plate for 1 hour with shaking.
(§11) Conduct the transfer from assay plate to filter plate. Aspirate the blocking buffer by vacuum filtration and wash two times with flush buffer. Transfer 90 μL from the assay plate to the filter plate. Aspirate the 90 μL transferred from assay plate and wash three times with 200 μL flush buffer. Remove the plastic support. Dry for 1 hour at 60° C. Add 30 μL Microscint. Perform the count.

Experiment [4] has as its target T1, human VPAC2. Put plainly: Filter binding assay, human VPAC2 membranes, 125I-labeled VIP tracer. As to the method:
as §2, §3, §4, §5, §6, §7, §8, §9, §10, §11

The target in experiment [5] is T2, human VPAC1. The experiment in a line: DiscoveRx cAMP in vitro potency, human VPAC1. The format is cell-based. Also on record: expressed in transfected cells; host or cells: CHO-PO, transient transfection (Lipofectamine). The protocol:
as §1

The target of experiment [6] is human PAC1 (Homo sapiens, UniProt P41586). Put plainly: cell-based. The protocol:
as §1

For experiment [7], the target named is T3, rat VPAC2 receptor (rat, UniProt P35000).
T3 sequence: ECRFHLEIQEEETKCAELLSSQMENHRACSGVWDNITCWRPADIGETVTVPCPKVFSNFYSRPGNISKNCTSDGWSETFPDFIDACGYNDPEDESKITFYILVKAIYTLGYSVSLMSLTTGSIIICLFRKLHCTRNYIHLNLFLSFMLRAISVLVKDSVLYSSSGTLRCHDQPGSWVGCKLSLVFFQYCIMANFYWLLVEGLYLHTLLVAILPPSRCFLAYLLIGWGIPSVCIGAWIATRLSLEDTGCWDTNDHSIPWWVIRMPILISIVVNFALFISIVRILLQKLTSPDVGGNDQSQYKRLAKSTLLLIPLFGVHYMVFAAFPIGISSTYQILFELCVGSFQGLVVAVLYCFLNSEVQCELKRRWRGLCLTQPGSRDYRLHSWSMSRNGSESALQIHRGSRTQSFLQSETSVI
The experiment in a line: cell-based or functional assay.

Experiment [8] deals with T4, human VPAC2 receptor (human) (UniProt P41587).
T4 sequence: T1 sequence (P41587 24-438)

In experiment [9] the target is T5, rat VPAC1 receptor (rat, UniProt P30083).
T5 sequence: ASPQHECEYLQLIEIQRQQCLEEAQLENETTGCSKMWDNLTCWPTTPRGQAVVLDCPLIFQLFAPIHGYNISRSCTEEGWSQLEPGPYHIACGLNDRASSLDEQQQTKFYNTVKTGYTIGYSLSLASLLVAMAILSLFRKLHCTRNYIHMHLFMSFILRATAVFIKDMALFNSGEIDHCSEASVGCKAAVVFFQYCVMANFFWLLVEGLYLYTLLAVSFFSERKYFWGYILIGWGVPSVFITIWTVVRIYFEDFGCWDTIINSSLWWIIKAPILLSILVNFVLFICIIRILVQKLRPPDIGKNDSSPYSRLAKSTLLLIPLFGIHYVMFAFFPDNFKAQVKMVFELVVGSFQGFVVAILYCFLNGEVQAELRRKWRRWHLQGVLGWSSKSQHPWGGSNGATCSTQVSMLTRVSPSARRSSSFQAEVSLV
Put plainly: cell-based or functional assay.

human PAC1, sequence (P41586 21-468): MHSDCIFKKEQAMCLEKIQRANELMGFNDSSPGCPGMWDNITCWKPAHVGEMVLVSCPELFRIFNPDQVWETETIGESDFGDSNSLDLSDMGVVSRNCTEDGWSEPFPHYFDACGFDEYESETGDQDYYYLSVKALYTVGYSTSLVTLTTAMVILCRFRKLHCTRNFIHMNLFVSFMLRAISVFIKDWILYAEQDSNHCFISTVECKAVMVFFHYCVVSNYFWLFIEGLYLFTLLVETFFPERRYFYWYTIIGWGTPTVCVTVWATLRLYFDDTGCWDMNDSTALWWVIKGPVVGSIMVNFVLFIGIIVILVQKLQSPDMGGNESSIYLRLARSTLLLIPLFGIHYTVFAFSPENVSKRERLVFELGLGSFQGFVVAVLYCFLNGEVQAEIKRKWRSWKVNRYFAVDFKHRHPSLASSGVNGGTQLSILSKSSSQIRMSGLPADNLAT

In the case of `CCCCCCCCCCCCCCCC(=O)N[C@@H](CCC(=O)NCCCC[C@H](NC(=O)[C@@H]1CCCN1C(=O)[C@@H]1CCCN1C(=O)[C@@H]1CCCN1C(=O)[C@H](CO)NC(=O)[C@@H](NC(=O)[C@H](CCCNC(=N)N)NC(=O)[C@H](CO)NC(=O)[C@H](CC(N)=O)NC(=O)[C@H](CCCCN)NC(=O)[C@@H](NC(=O)[C@H](CO)NC(=O)[C@H](CCC(N)=O)NC(=O)[C@H](CC(C)C)NC(=O)[C@H](Cc1ccc(O)cc1)NC(=O)[C@H](CCCCN)NC(=O)[C@H](CCCCN)NC(=O)[C@H](C)NC(=O)[C@H](C)NC(=O)[C@@H](NC(=O)[C@H](CCC(N)=O)NC(=O)[C@H](CCCCN)NC(=O)[C@H](CCCNC(=N)N)NC(=O)[C@H](CC(C)C)NC(=O)[C@H](CCCNC(=N)N)NC(=O)[C@@H](NC(=O)[C@H](Cc1ccc(O)cc1)NC(=O)[C@H](CC(N)=O)NC(=O)[C@H](CC(=O)O)NC(=O)[C@@H](NC(=O)[C@H](Cc1ccccc1)NC(=O)[C@@H](NC(=O)[C@H](C)NC(=O)[C@H](CC(=O)O)NC(=O)[C@H](CO)NC(=O)[C@H](Cc1c[nH]cn1)NC(=O)CC)C(C)C)[C@@H](C)O)[C@@H](C)O)C(C)C)[C@@H](C)CC)[C@@H](C)O)C(N)=O)C(=O)O` [Agonist P95] (Propionyl-HSDAVFTDNYTRLRKQVAAKKYLQSIKNSRTSPPPK([γGlu-Palmitoyl])-NH2), the figures for the EC50 in experiment [1] and in experiment [2] were 0.45 nM and 0.24 nM, respectively. The figures for the IC50 in experiment [3] and in experiment [4] were 203 nM and 21.6 nM, respectively.

As to “Ac-HSDAVFTDNYTRLRKQVAAKKYLQSIKNSRTSPPP-NH2 [Agonist P32]”, the concentration giving a half-maximal response (EC50) (in general, the concentration giving half of the maximal effect) in experiment [1] stood at 0.65 nM; in experiment [2] it was 0.32 nM; in experiment [5] it was 8.24 nM; in [6], 125 nM. Moreover, the results for the IC50 in experiment [3] and in experiment [4] were 38.3 nM and 0.89 nM, respectively.

B1: P309 (peptide)
peptide: HSDAVFTDNYTRLRXQVAAXKYLQSIKNSRTSPPP
modifications: N-terminal hexanoyl (C6); Aib (amino isobutyric acid) at positions 15 and 20; C-terminal amide (-NH2)
Consider B1, for which the “EC50 for cAMP generation, DiscoveRx” value in experiment [7] is 0.05 nM. In experiment [8], this molecule gave an EC50 (nM) for cAMP generation, Alpha Screen of 0.16 nM.

B2: P81 (peptide)
peptide: Hexanoyl-HSDAVFTDNYTRLRKQVAAKKYLQSIKNSRTSPPPK([γGlu-Palmitoyl])-NH2
SMILES: CCCCCCCCCCCCCCCC(=O)N[C@@H](CCC(=O)NCCCC[C@H](NC(=O)[C@@H]1CCCN1C(=O)[C@@H]1CCCN1C(=O)[C@@H]1CCCN1C(=O)[C@H](CO)NC(=O)[C@@H](NC(=O)[C@H](CCCNC(=N)N)NC(=O)[C@H](CO)NC(=O)[C@H](CC(N)=O)NC(=O)[C@H](CCCCN)NC(=O)[C@@H](NC(=O)[C@H](CO)NC(=O)[C@H](CCC(N)=O)NC(=O)[C@H](CC(C)C)NC(=O)[C@H](Cc1ccc(O)cc1)NC(=O)[C@H](CCCCN)NC(=O)[C@H](CCCCN)NC(=O)[C@H](C)NC(=O)[C@H](C)NC(=O)[C@@H](NC(=O)[C@H](CCC(N)=O)NC(=O)[C@H](CCCCN)NC(=O)[C@H](CCCNC(=N)N)NC(=O)[C@H](CC(C)C)NC(=O)[C@H](CCCNC(=N)N)NC(=O)[C@@H](NC(=O)[C@H](Cc1ccc(O)cc1)NC(=O)[C@H](CC(N)=O)NC(=O)[C@H](CC(=O)O)NC(=O)[C@@H](NC(=O)[C@H](Cc1ccccc1)NC(=O)[C@@H](NC(=O)[C@H](C)NC(=O)[C@H](CC(=O)O)NC(=O)[C@H](CO)NC(=O)[C@H](Cc1c[nH]cn1)NC(=O)CCCCC)C(C)C)[C@@H](C)O)[C@@H](C)O)C(C)C)[C@@H](C)CC)[C@@H](C)O)C(N)=O)C(=O)O
Regarding B2, the “EC50 for cAMP generation, DiscoveRx” value in experiment [9] was 0.8 nM. Further, in experiment [7], the “EC50 for cAMP generation, DiscoveRx” value stood at 0.05 nM. Besides, in [8], the EC50 (nM) for cAMP generation, Alpha Screen came out at 0.01 nM and the EC50 (nM) for cAMP generation, DiscoveRx amounted to 0.18 nM.

As to HSDAVFTDNYTRLRKAAAAKKYLQSIKNSRTSPPP-NH2 [P97], the “EC50 for cAMP generation, DiscoveRx” value in experiment [9] is 0.3 nM. In [8], this molecule yielded an EC50 (nM) for cAMP generation, Alpha Screen of 0.64 nM.

B3: P118 (peptide)
peptide: Hexanoyl-HSDAVFTDNYTRLRKQVAAKKYLQSIKNSRTSPPPK(Trp)-NH2
SMILES: CCCCCC(=O)N[C@@H](Cc1c[nH]cn1)C(=O)N[C@@H](CO)C(=O)N[C@@H](CC(=O)O)C(=O)N[C@@H](C)C(=O)N[C@H](C(=O)N[C@@H](Cc1ccccc1)C(=O)N[C@H](C(=O)N[C@@H](CC(=O)O)C(=O)N[C@@H](CC(N)=O)C(=O)N[C@@H](Cc1ccc(O)cc1)C(=O)N[C@H](C(=O)N[C@@H](CCCNC(=N)N)C(=O)N[C@@H](CC(C)C)C(=O)N[C@@H](CCCNC(=N)N)C(=O)N[C@@H](CCCCN)C(=O)N[C@@H](CCC(N)=O)C(=O)N[C@H](C(=O)N[C@@H](C)C(=O)N[C@@H](C)C(=O)N[C@@H](CCCCN)C(=O)N[C@@H](CCCCN)C(=O)N[C@@H](Cc1ccc(O)cc1)C(=O)N[C@@H](CC(C)C)C(=O)N[C@@H](CCC(N)=O)C(=O)N[C@@H](CO)C(=O)N[C@H](C(=O)N[C@@H](CCCCN)C(=O)N[C@@H](CC(N)=O)C(=O)N[C@@H](CO)C(=O)N[C@@H](CCCNC(=N)N)C(=O)N[C@H](C(=O)N[C@@H](CO)C(=O)N1CCC[C@H]1C(=O)N1CCC[C@H]1C(=O)N1CCC[C@H]1C(=O)N[C@@H](CCCCNC(=O)[C@@H](N)Cc1c[nH]c2ccccc12)C(N)=O)[C@@H](C)O)[C@@H](C)CC)C(C)C)[C@@H](C)O)[C@@H](C)O)C(C)C
For B3, the “EC50 for cAMP generation, DiscoveRx” value in experiment [9] worked out at 0.47 nM.

Source of the values: patent US20080096811A1, “[…] VPAC2 RECEPTOR PEPTIDE AGONISTS” (Eli Lilly and Company, published 2008).
